One assay concerns Pseudomonas aeruginosa. Nature of the assay: MIC assay (microdilution). The class given is cell-based. (In general: Dilution methods test growth across graded concentrations, often in twofold steps.)
For assay [1], the system named is DNBS-induced colitis. Nature of the assay: DNBS-induced colitis in rat, macroscopic observations (body weight, total IBD score). The class given is in vivo, Sprague-Dawley rats. The note with it: for total IBD score: vs placebo.
Text: Animals: Male Sprague-Dawley rats, weighing approximately 250-300 gm were purchased from Charles River Laboratories (Raleigh, N.C.). The animals were housed under standard conditions with free access to food and water. They were acclimatized for 2-3 days before commencing the experiments. The study protocol was approved by the Institutional Animal Care and Use Committees (IACUC).
Induction of ulcerative colitis: Colitis was produced according to published methods. Animals were anesthetized by intraperitoneal injection of 75 mg/kg of ketamine plus 5 mg/kg of xylazine. A single intracolonic injection of 120 mg/ml of dinitrobenzenesulfonic acid (DNBS) (Sigma Chemicals, St. Louis, Mo.) in 250 micro liter of 50% ethanol was administered through a Tom Cat catheter (Kendall Sovereign, Mansfield, Mass.) with a closed-end tip, connected to a 1 ml syringe and placed 7 cm proximal to the anus. Lubricant was applied to the tip of the catheter before injection, to protect from mucosal injury. After instillation of DNBS, 0.5 ml of air was insufflated and the catheter was removed.
Sulfasalazine (Sigma Chemicals, St Louis, Mo.), at a concentration of 120 mg/ml for intracolonic treatment and 30 mg/ml for oral treatment was used as the reference drug in all the experiments. Sulfasalazine was first dissolved in 0.1M NaOH at a concentration about 30-fold higher than the required final concentration, and then suspended in 1.5% PVA for oral dosing and 5.7% PVA for intracolonic dosing.
One group was not treated and served as no treatment group. Treatment began one day after administration of DNBS.
Macroscopic Observations: Body weight was recorded daily and the animals were examined for their physical appearance. After five days of treatment, animals were sacrificed. The colon was excised between the ileocecal junction and rectum, and opened longitudinally. After scoring of the consistency of the stool the colon was rinsed in normal saline, examined and thickness of the colonic wall and number and size of ulcers were scored. Stool consistency was graded on a scale of 0-3: 0=normal stool, well formed pellets rigid as normal; 1=loose stool, formed pellet with moisture, soft stool keeping in stool shape; 2=loose stool, stools that have abnormal form with much moisture, softer shapeless stool; 3=watery or bloody diarrhea.
Thickness of colonic wall was graded on a scale of 0-4: 0=normal, no thickness; 1=mild thickness in lower portion of the colon; 2=moderate thickness in localized area; 3=moderate thickness extending to the central portion of the colon; 4=severe thickness in the whole colon. Colonic ulceration was graded on a scale of 0-10: 0=no ulcers; 1=one small ulcer less than 2-3 mm; 2=one large ulcer more than 2-3 mm; 3=two large ulcerations more than 2-3 mm in diameter; 4=two or more sites of ulcerations extending 1 cm along the length; 5-10=when an area of ulceration extended more than 1 cm along the length of the colon, the score increases by 1 for each additional cm of involvement. The total IBD score, obtained by the sum of the scores of colonic ulcer, colon thickness and stool consistency for each animal, was calculated for each treatment group.
Statistical Analysis: The results are expressed as the mean ±SE. The statistical significance in the mean total IBD score, histopathological inflammation score, and the immunohistochemical staining of cytokines or MMP-9 was determined using Tukey-Kramer's multiple comparison tests following one-way analysis of variance (ANOVA). The data were calculated with the aid of Instat Graph Pad Software. Differences with a P value less than 0.05 were considered significant.
Methods: Colitis was induced in rats using DNBS as described in Example 25. Animals were treated intracolonically (250 μl of the test reagents) once a day for five days. […] Methods: Colitis was induced in rats using DNBS as described in Example 25. Animals were treated intracolonically (250 μl of the test reagents) once a day for five days.
Assay [2] relates to DNBS-induced colitis. The assay can be described thus: DNBS-induced colitis in rat, colon histopathology. The class given is in vivo, Sprague-Dawley rats. Here is the method:
Histopathology: A piece of colonic tissue at 2-4 cm proximal to the anus was excised and fixed in 10% formalin and the sections were stained with hematoxylin and eosin. The remaining length of the colonic tissues was stored at −80° C. for subsequent biochemical assays. The histology slides were examined by a veterinary pathologist who was blinded to the treatment groups. The extent of microscopic mucosal damage of the colon was scored on scale of 0-5 as described with slight modification: 0=normal histological appearance; 1=histological damage limited to surface epithelium, mild infiltration of the submucosa; 2=focal ulceration and cell disruption limited to mucosa, abnormal appearance of colonic wall, mild infiltration of inflammatory cells; 3=focal, transmural inflammation and ulceration, with mild to moderate infiltration of inflammatory cells; 4=Extensive transmural ulceration and inflammation bordered by areas of normal mucosa, moderate infiltration of inflammatory cells; 5=extensive transmural ulceration and inflammation involving entire section from epithelium to serosa, severe infiltration of inflammatory cells.
Statistical Analysis: The results are expressed as the mean ±SE. […] The data were calculated with the aid of Instat Graph Pad Software. […]

For another assay, the system named is IL-1β. Nature of the assay: Immunohistochemistry of colonic tissue. The assay is classed as in vivo, rat. To be noted: five days oral treatment. Here is the method:
(§1) Immunohistochemistry: A Universal Streptavidin/Biotin detection system (Thermo Shandon, Pittsburgh, Pa.) was used for immunohistochemical staining of formalin fixed, paraffin embedded biopsies of the colon. After dewaxing, and hydration, sections were treated with protein blocking agent to reduce non-specific binding of antibodies. The tissues were then incubated with rabbit anti-rat TNF-α, or mouse anti-rat IL-12 p70 antibodies (Biosource International, Inc, Camarillo, Calif.); rabbit anti-rat IL-1β (Serotec, Raleigh, N.C.) or rabbit anti-rat MMP-9 antibody (Chemicon International, Telecuma, Calif.) in 1% bovine serum albumin in phosphate buffered saline. Incubations with secondary antibodies, streptavidin/biotin, and chromogenic detection of peroxidase were performed according to the manufacturer's protocol. Sections were counterstained, dehydrated, mounted and examined. The intensity of the immuno-peroxidase staining was graded as described previously. Expression of cytokines was graded as: 0, no staining in the section; 1, less than 25% of the section; 2, 25-50% of the section; 3, 50-75% of the section; 4, >75% of the section with significant staining.

A further assay has as its system MMP-9. Nature of the assay: Immunohistochemistry of colonic tissue. The assay is classed as in vivo, rat. To be noted: vs placebo and no treatment. Here is the method: as §1
The subject of a further assay is TNF-α. The assay can be described thus: Immunohistochemistry of colonic tissue. The assay is classed as in vivo, rat. To be noted: five days oral treatment. How it is done:
as §1

A further assay concerns Enterobacter cloacae. The assay can be described thus: MIC assay (microdilution). The class given is cell-based. The note with it: Ent. cloacae.
In a further assay the test system is Escherichia coli. The assay can be described thus: MIC assay (microdilution). The class given is cell-based.
The test system of another assay is Staphylococcus aureus. Nature of the assay: MIC assay (microdilution). The class given is cell-based. The note with it: lactate solutions, nanocrystalline silver: range for 12 samples.
Assay [3] concerns Staphylococcus epidermidis. Nature of the assay: MIC assay (microdilution). The assay is classed as cell-based. To be noted: lactate solutions; S. epiderm (ATCC); nanocrystalline silver: range for 12 samples.
For the next assay, the system named is Streptococcus pyogenes. Nature of the assay: MIC assay (microdilution). The assay is classed as cell-based. The note with it: lactate solutions, nanocrystalline silver: range for 12 samples.
The next assay deals with Streptococcus pneumoniae. The assay can be described thus: MIC assay (microdilution). The assay is classed as cell-based. To be noted: lactate solutions, nanocrystalline silver: range for 12 samples.
The test system of assay [4] is Mycobacterium tuberculosis H37Ra. The assay is classed as cell-based.

≈ marks a conversion by molar mass, not a printed value.

On to Benzalkonium chloride [BAC], for which the MIC was found to be 63 µg/mL against Pseudomonas aeruginosa (P. aeruginosa isolate NP220 (BAC-sensitive)), 4000 µg/mL against Pseudomonas aeruginosa (P. aeruginosa isolate NP221 (BAC-resistant)) and 63 µg/mL in the assay with Pseudomonas aeruginosa (P. aeruginosa isolate NP222 (BAC-sensitive)).

Take `O=C(O)c1cc(/N=N/c2ccc(S(=O)(=O)Nc3ccccn3)cc2)ccc1O` [sulfasalazine, salicylazosulfapyridine]: in the assay with DNBS-induced colitis [1] (DNBS colitis rats, intracolonic or oral treatment), the body weight entry is “started gaining body weight after one day of treatment”. Besides, the “total IBD score” value is “significantly reduced total IBD score” in the assay on DNBS-induced colitis [1] (Example 27, 100 mg/kg) and “significantly reduced total IBD score” with DNBS-induced colitis [1] (Example 28, 100 mg/kg). The histopathological inflammation score entry in the assay with DNBS-induced colitis [2] (oral 100 mg/kg, vs placebo and untreated) is “significantly reduced the histopathological inflammation”. For the same compound, the “colon sections (hematoxylin and eosin)” value with DNBS-induced colitis [2] (oral, 40 mg/kg nanocrystalline silver, 100 mg/kg sulfasalazine) is “healed mucosa and few residual inflammatory infiltrate”. Besides, the “expression of IL-1β (immunohistochemical staining)” value in the assay with IL-1β is on record as “significantly reduced the expression”. Further, in the assay on MMP-9, the “expression of MMP-9 (immunohistochemical staining)” value is recorded as “significantly reduced the expression of MMP-9”. The “expression of TNF-α (immunohistochemical staining)” value in the assay with TNF-α is listed as “significantly reduced the expression”.

Regarding `OO` [Sample H2O2, hydrogen peroxide], the MIC is more than 500 µg/mL with Enterobacter cloacae (SOD/catalase +); 63 µg/mL (≈ 1850 µM) against Enterobacter cloacae (SOD/catalase −); more than 500 µg/mL in the assay with Escherichia coli (E. coli, SOD/catalase +); 31 µg/mL (≈ 911 µM) against Escherichia coli (E. coli, SOD/catalase −).

For the compound silver oxide [Ag2O], the MIC with Staphylococcus aureus (S. aureus (ATCC)) turned out to be 3 µg/mL; against Staphylococcus aureus (S. aureus (clin.)) it was 6 µg/mL; in assay [3] it was 2 µg/mL; with Streptococcus pyogenes (S. pyog (clin. 303)), 2 µg/mL; with Streptococcus pyogenes (S. pyog (clin. 304)) it was 3 µg/mL; in the assay on Streptococcus pneumoniae (S. pneumo (clin 314)), 3 µg/mL. Besides, the MIC stood at 2 µg/mL against Streptococcus pneumoniae (S. pneumo (clin 315)); 0.8 µg/mL with Pseudomonas aeruginosa (lactate solutions, P. aerug (ATCC), nanocrystalline silver: range for 12 samples); 2 µg/mL against Pseudomonas aeruginosa (lactate solutions, P. aerug. (clin.), nanocrystalline silver: range for 12 samples); 0.8 µg/mL against Escherichia coli (lactate solutions, E. coli (ATCC), nanocrystalline silver: range for 12 samples); 2.5 μg/ml silver in assay [4]. Besides, the “total IBD score” value in the assay on DNBS-induced colitis [1] (Example 27, 0.25% homogenized, intracolonic, five days) is “unable to show significant reduction of total IBD score”; in the assay on DNBS-induced colitis [1] (Example 27, 0.5% homogenized, intracolonic, five days), “unable to show significant reduction of total IBD score”; in the assay with DNBS-induced colitis [1] (Example 27, 0.5% sonicated nanodispersion, 250 μl intracolonically once a day for five days), “significantly reduced the total IBD score”; with DNBS-induced colitis [1] (Example 28, 0.05% nanodispersion, intracolonic, five days), “but not 0.15% and 0.05%”; in the assay on DNBS-induced colitis [1] (Example 28, 0.15% nanodispersion, intracolonic, five days), “but not 0.15% and 0.05%”; in the assay on DNBS-induced colitis [1] (Example 28, 0.5% sonicated nanodispersion, 250 μl intracolonically once a day for five days) it was “significantly reduced the total IBD score”. In the assay on DNBS-induced colitis [1] (Example 28, 1.5% nanodispersion, intracolonic, five days), the “total IBD score” value is recorded as “significantly reduced the total IBD score”.
